The values below come from patent US9988371B2, “Benzimidazole analogues and related methods” (The Arizona Board of Regents, on Behalf of the University …, priority 2014, dated 2018).

Series [1] concerns the target CYP3A4 (Homo sapiens, UniProt P08684). Nature of the series: CYP inhibition. The format is in vitro ADME. As to conditions: read-out: CYP 3A4 IC50.
Series [2] has as its system TT cells (MTC, RET/C634W). Nature of the series: Growth curve proliferation assay, TT cells. The format is cell-based. The settings on record: Homo sapiens, last day of growth curves. As to the method:
FIG. 5: Effects exerted by indicated concentrations of Pz-1 or vehicle (NT: not treated) on proliferation of TT (human MTC cell line expressing RET/C634W), Lc-2/ad (human NSCLC expressing CCDC6-RET) and Nthy-ori-3-1 (thyroid non-transformed) cell lines. Data are the mean±SD (Standard Deviation) of one experiment performed in triplicate. Bottom, right) Growth inhibition IC50 of Pz-1 for the different cell lines: 95% CI (confidence intervals) are indicated in brackets. Cells were seeded in triplicate in 60-mm dishes and kept in 5% (Nthy-ori-3-1) or 10% (TT and Lc-2/ad) fetal calf serum. The day after plating, different concentrations of Pz-1 or vehicle were added to the medium and changed every 2-3 days. Cells were counted every 2-3 days and cell numbers were reported±SD (Standard Deviation). IC50 doses (with Confidence Intervals) were calculated through a curve fitting analysis from the last day of growth curves using the PRIZM software program (Graphpad Software Inc).
Nthy-ory-3-1 and TTcells were seeded in 60-mm dishes. […] Cells were counted every 2-3 days. […] Parental and RET/PTC-expressing Ba/F3 were kept in 10% fetal calf serum in 6-multi wells and counted every day for 4 consecutive days, changing media every 2 days. […] IC50 doses were calculated through a curve fitting analysis from the last day of growth curves using the PRISM software program (Graphpad Software Inc). […]

Series [3] deals with T1, VEGFR2 (Mus musculus, UniProt P35918).
T1 construct: from tissue; host or cells: subcutaneous tumours (NIH3T3 RET/C634Y or NIH3T3 HRAS/G12V) in BALB/c nu/nu mice
T1 sequence (P35918 20-1345): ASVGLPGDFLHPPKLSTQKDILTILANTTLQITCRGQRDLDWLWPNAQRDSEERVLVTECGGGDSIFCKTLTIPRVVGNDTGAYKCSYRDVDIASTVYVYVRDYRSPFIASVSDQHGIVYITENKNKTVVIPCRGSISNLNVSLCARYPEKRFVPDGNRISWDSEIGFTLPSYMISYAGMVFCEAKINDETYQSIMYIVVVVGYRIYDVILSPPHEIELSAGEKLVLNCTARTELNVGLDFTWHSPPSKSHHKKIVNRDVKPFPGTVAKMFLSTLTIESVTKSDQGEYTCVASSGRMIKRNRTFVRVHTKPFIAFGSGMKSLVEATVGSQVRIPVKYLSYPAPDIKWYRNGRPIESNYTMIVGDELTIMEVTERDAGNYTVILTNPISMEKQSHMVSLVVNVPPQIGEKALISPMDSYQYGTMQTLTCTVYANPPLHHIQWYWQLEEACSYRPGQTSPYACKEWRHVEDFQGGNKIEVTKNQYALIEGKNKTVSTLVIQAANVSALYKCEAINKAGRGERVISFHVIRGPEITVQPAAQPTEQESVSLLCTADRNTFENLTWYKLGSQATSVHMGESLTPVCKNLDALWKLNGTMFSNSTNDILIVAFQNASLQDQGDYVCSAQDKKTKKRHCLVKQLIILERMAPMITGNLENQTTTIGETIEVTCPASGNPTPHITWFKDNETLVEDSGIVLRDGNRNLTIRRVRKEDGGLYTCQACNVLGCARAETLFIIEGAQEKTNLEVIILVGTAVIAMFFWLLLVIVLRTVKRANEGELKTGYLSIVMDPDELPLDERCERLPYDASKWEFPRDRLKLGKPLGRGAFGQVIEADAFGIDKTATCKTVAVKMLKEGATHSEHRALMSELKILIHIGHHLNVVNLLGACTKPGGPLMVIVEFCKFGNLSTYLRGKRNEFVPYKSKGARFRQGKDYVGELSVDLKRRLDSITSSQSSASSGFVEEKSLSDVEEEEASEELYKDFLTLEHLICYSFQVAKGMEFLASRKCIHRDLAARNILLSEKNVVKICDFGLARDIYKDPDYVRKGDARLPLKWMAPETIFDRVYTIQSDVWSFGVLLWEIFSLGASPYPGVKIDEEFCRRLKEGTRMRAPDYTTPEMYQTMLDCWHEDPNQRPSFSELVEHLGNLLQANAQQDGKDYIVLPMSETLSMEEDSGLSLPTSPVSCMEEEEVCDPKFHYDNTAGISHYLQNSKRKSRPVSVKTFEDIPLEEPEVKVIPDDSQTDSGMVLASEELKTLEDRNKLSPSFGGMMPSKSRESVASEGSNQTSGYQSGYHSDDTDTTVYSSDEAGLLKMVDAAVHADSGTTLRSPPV
Nature of the series: In vivo target inhibition, pVEGFR2 in HRAS/G12V-induced tumors. As to conditions: 48 hr, 1.0 or 3.0 mg/kg daily. On the set-up: species or system nude mice. As to the method:
(§1) FIG. 9: Photographs of blots showing effects of Pz-1 on cellular phosphorylation events in tumors induced in nude mice (from FIG. 8) by injection of NIH3T3 fibroblasts transformed by RET/C634Y or HRAS/G12V. […] Some of the vehicle-treated tumors, at the end of the tumor growth experiment described in FIG. 8, were treated for 48 hr with different doses of Pz-1 (TR) or left untreated (NT). At the end of the treatment, 50 μg of tumor protein lysates were subjected to immunoblotting with anti-phospho-Y1062 (αp1062) and anti-phospho-905 (αpY905) RET antibodies, anti-phospho-MAPK (αpMAPK, T302/Y304), anti-phospho-SHC (αpSHC, Y317), anti-phospho-p70S6K (αpp70S6K, T389), anti-phospho-S6RP (αpS6RP, S235/S236), and anti-phospho-VEGFR2 (αpVEGFR2 pY1175) antibodies. The blots were normalized using anti-RET (αRET), anti-SHC (αSHC), anti-MAPK (αMAPK), anti-p70S6K (αp70S6K), anti-S6RP (αS6RP) or anti-VEGFR2 (αVEGFR2) antibodies.
(§2) Some of the vehicle-treated tumors, at the end of the tumor growth experiment reported in FIG. 8, were treated for 48 hr with different doses of Pz-1 (1.0 or 3.0 mg/kg daily) or left untreated. […]

Series [4] has as its system intracellular signaling (SHC, MAPK, p70S6K and S6RP). The experiment in a line: In vivo target inhibition, RET phosphorylation and signaling in HRAS/G12V-induced tumors. On the set-up: species or system nude mice. As to conditions: 48 hr, 1.0 or 3.0 mg/kg daily. As to the method:
as §1, §2

CYP3A4, sequence (P08684 whole entry): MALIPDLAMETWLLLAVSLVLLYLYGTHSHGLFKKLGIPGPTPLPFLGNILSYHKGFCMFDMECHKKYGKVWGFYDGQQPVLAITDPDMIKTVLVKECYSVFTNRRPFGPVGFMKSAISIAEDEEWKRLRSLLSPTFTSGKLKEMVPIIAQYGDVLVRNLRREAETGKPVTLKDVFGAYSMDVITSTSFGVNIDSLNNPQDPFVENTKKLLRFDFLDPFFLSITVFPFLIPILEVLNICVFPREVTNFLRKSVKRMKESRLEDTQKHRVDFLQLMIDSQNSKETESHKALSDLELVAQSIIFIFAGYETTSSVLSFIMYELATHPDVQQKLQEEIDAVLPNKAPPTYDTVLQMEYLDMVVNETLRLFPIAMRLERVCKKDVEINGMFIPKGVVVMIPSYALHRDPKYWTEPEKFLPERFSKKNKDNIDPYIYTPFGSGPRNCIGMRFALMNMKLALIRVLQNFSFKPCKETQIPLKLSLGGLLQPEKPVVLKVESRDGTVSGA

As usually defined, the IC50 is the concentration that gives 50% inhibition. `Cn1cc(-c2ccc3c(c2)ncn3-c2ccc(CC(=O)Nc3cc(C(C)(C)C)on3)cc2)cn1` [Pz-1, N-(5-(tert-butyl)isoxazol-3-yl)-2-(4-(5-(1-methyl-1H-pyrazol-4-yl)-1H-benzo[d]imidazol-1-yl)phenyl)acetamide]: the IC50 stood at 7.4 µM in series [1] and 0.00186 µM in series [2]. The pVEGFR2 in tumors entry in series [3] is given as “inhibited”. Also, the “RET phosphorylation and intracellular signaling (SHC, MAPK, p70S6K and S6RP) in tumors” value in series [4] is “only in RET/C634Y-induced tumors”.
